Source: PubChem BioAssay (NCI)
Values joined by “and” are separate entries in the source; they are usually repeats but may differ in a detail not shown here. Equal entries are not always repeated.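 Compound exposure: 48 hours, 5 concentrations, 96-well plates. The concentration for 50% growth inhibition is given as GI50. TGI: concentration producing complete growth inhibition.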

Legend:
Experiment in all cases: NCI tumour cell line growth inhibition, 48 h
KM12 colon = system: KM12 colon
SW-620 colon = system: SW-620 colon
T-47D breast = system: T-47D breast
OVCAR-4 ovarian = system: OVCAR-4 ovarian
RPMI-8226 leukemia = system: RPMI-8226 leukemia
TK-10 renal = system: TK-10 renal
OVCAR-8 ovarian = system: OVCAR-8 ovarian
SK-MEL-5 melanoma = system: SK-MEL-5 melanoma
MALME-3M melanoma = system: MALME-3M melanoma
IGROV1 ovarian = system: IGROV1 ovarian

| Structure (SMILES) | GI50 (KM12 colon) | TGI (KM12 colon) | GI50 (SW-620 colon) | TGI (SW-620 colon) | GI50 (T-47D breast) [µM] | TGI (T-47D breast) [µM] | GI50 (OVCAR-4 ovarian) | TGI (OVCAR-4 ovarian) | GI50 (RPMI-8226 leukemia) | TGI (RPMI-8226 leukemia) | GI50 (TK-10 renal) | TGI (TK-10 renal) | GI50 (OVCAR-8 ovarian) | GI50 (SK-MEL-5 melanoma) | TGI (SK-MEL-5 melanoma) | GI50 (MALME-3M melanoma) | TGI (MALME-3M melanoma) | GI50 (IGROV1 ovarian) | TGI (IGROV1 ovarian) | TGI (OVCAR-8 ovarian) [µM] |
| --- | --- | --- | --- | --- | --- | --- | --- | --- | --- | --- | --- | --- | --- | --- | --- | --- | --- | --- | --- | --- |
| CC1=C[C@H]2c3c(c(O)c(O)c4oc5cc(O)cc(O)c5c(=O)c34)[C@H](c3cc(O)c(O)c4oc5cc(O)cc(O)c5c(=O)c34)[C@H]2C(C)(C)C1 | 1.04 µM and 1.51 µM | 3.02 µM and 3.57 µM | 1.26 µM and 1.28 µM | 4.69 µM and 3.5 µM | 2.78 | 26 | 3.92 µM and 2.9 µM | 23.2 µM and 16.6 µM | 0.915 µM and 0.392 µM | 4.57 µM and 2.04 µM | 2.12 µM and 3.06 µM | 10.5 µM and 14.8 µM | 2.38 µM and 3.39 µM | 1.53 µM and 1.43 µM | 2.89 µM and 2.84 µM | 1.73 µM and 1.98 µM | 4.1 µM and 5.31 µM | 1.36 µM and 2.05 µM | 5.26 µM and 17 µM | – |
| COC(=O)C1CC2(c3ccc(C)cc3)C(c3ccc(C)cc3)=C(c3ccc(C)cc3)C1(c1ccc(C)cc1)S2=O (centres undefined) | > 100 µM | > 100 µM | > 100 µM | > 100 µM | 60.4 | > 100 | 22.5 µM | 81.2 µM | > 100 µM | > 100 µM | > 100 µM | > 100 µM | 37.9 µM | > 100 µM | > 100 µM | > 100 µM | > 100 µM | 98.4 µM | > 100 µM | > 100 |
| Cc1c(N2C(=O)/C(=C\c3ccc(O)cc3)N=C2c2ccccc2)c(=O)n(-c2ccccc2)n1C | > 100 µM | > 100 µM | > 100 µM | > 100 µM | > 100 | > 100 | > 100 µM | > 100 µM | > 100 µM | > 100 µM | > 100 µM | > 100 µM | > 100 µM | > 100 µM | > 100 µM | > 100 µM | > 100 µM | > 100 µM | > 100 µM | > 100 |
